According to article PMC13059744 (mBio, 2026):

System: cabABC promoter (PcabABC-luc) in S. mitis G22
Test: cabABC expression, PcabABC-luc reporter in S. mitis G22
Assay type: cell-based, Streptococcus mitis
Settings: after CSPG22 treatment in acidic medium; Fig. S3B

Sequence: ESRLSRLLRDFIFQIKQ [CSPG22]
- time of peak cabABC expression post-induction: approximately 70 min
